From ChEMBL document CHEMBL5226318, “Emerging Therapeutic Potential of SIRT6 Modulators” (J Med Chem, 2021) come the findings set out here.

Usually bioavailability stands for the share of a dose that reaches the circulation, judged against a reference dose that is usually intravenous. High values mean good availability, low ones poor availability.

The data set is described as follows: Oral bioavailability in C57BL/6J mouse. The data set is classed as ADME, organism-based. As to conditions: in vivo.

With `COC(=O)c1cc(NS(=O)(=O)c2cc(Cl)cc(Cl)c2)ccc1S(=O)(=O)Nc1cc(Br)c(F)cc1C`, the bioavailability amounted to 71.3%.

As to `Cc1cc(F)c(Br)cc1NS(=O)(=O)c1ccc(NS(=O)(=O)c2cc(Cl)cc(Cl)c2)cc1CN1CCOC[C@H]1C`, the bioavailability worked out at 93%.
